Starred links: 1 amine or outer side, 2 acyl side, 3 side chain; linkers in the order of their positions; H or OH if unused. Non-standard residues stand in square brackets, D forms with d. Residues, ends and D or L forms follow the SMILES beside them. *: point of attachment. Dolaproine = CO[C@@H]([C@@H]1CCCN1)[C@@H](C)C(=O)O; X2 = CC(C)[C@@H](C(=O)[*:2])N(C)CCCCCN(C)[*:1]; X5 = CC(C)[C@@H](C(=O)[*:2])N(C)CCCN(C)[*:1]; Dil = CC[C@H](C)[C@H](NC)[C@@H](CC(=O)O)OC; X1 = C[C@@H](N*)[C@@H](O)c1ccccc1; NMeV = CN[C@H](C(=O)O)C(C)C; Boc = CC(C)(C)OC(=O)*
B1: h1F6-37(4): 4-load auristatin ADC targeting CD70: h1F6 antibody conjugated to drug linker compound 37 (conjugate, chains of the INN, looked up)
VH: QVQLVQSGAEVKKPGASVKVSCKASGYTFTNYGMNWVRQAPGQGLKWMGWINTYTGEPTYADAFKGRVTMTRDTSISTAYMELSRLRSDDTAVYYCARDYGDYGMDYWGQGTTVTVSS
VL: DIVMTQSPDSLAVSLGERATINCRASKSVSTSGYSFMHWYQQKPGQPPKLLIYLASNLESGVPDRFSGSGSGTDFTLTISSLQAEDVAVYYCQHSREVPWTFGQGTKVEIK
modifications: auristatin drug linker compound 37, 4-load
B2: h1F6-35(4): 4-load auristatin ADC targeting CD70: h1F6 antibody conjugated to drug linker compound 35 (conjugate, chains of the INN, looked up)
VH: B1 VH
VL: B1 VL
modifications: auristatin drug linker compound 35, 4-load
B3: h1F6-38(4): 4-load auristatin ADC targeting CD70: h1F6 antibody conjugated to drug linker compound 38 (conjugate, chains of the INN, looked up)
VH: B1 VH
VL: B1 VL
modifications: auristatin drug linker compound 38, 4-load
B4: h1F6-36(4): 4-load auristatin ADC targeting CD70: h1F6 antibody conjugated to drug linker compound 36 (conjugate, chains of the INN, looked up)
VH: B1 VH
VL: B1 VL
modifications: auristatin drug linker compound 36, 4-load
B5: h1F6-mc-vc-MMAE(4): comparator 4-load h1F6 ADC having an mc-vc-MMAE drug linker (conjugate, chains of the INN, looked up)
VH: B1 VH
VL: B1 VL
modifications: mc-vc-MMAE, 4-load
notes: comparator 4-load h1F6 ADC having an mc-vc-MMAE drug linker
B6: h1F6-mc-vc-MMAF(4): comparator 4-load h1F6 ADC having an mc-vc-MMAF drug linker (conjugate, chains of the INN, looked up)
VH: B1 VH
VL: B1 VL
modifications: mc-vc-MMAF, 4-load
notes: comparator 4-load h1F6 ADC having an mc-vc-MMAF drug linker

Legend:
Assay type in all cases: cell-based
[1] = system: MDR− HL60 acute myeloid leukemia cell line; assay: In vitro cytotoxicity (CellTiter-Glo cell proliferation assay), free drugs on HL60; settings: free drug, 96 h incubation; read-out: In vitro IC50 HL60 (MDR−)
Experimental: (§1) The cytotoxicity of an auristatin Ligand Drug Conjugate or free auristatin drug was measured by a cell proliferation assay employing the protocol described in Promega Corp. Technical Bulletin TB288; Mendoza et al., 2002, Cancer Res. 62:5485-5488), the methods of which is specifically incorporated by reference herein. Briefly, an aliquot of 100 μl of cell culture containing about […] (e.g., HL-60, SK-MEL-5, etc.) in medium is deposited in each well of a 96-well, opaque-walled plate. Control wells were prepared containing medium and without cells. Free Drug or conjugate is added to the experimental wells and incubated for 96 h and are then equilibrated to room temperature for approximately 30 minutes whereupon a volume of CellTiter-Glo™ reagent equal to the volume of cell culture medium present in each well is added. The contents are mixed for 2 minutes on an orbital shaker to induce cell lysis and the plate is incubated at room temperature for 10 minutes to stabilize the luminescence signal for recordation.

[2] = In vitro cytotoxicity, free drugs on Colo-853; settings: free drug; read-out: In vitro IC50 Colo-853 Colon Cancer
Experimental: as §1

[3] = system: SK-MEL-5 Melanoma; assay: In vitro cytotoxicity, free drugs on SK-MEL-5; settings: free drug
Experimental: as §1

[4] = system: A2058 Melanoma; assay: In vitro cytotoxicity, free drugs on A2058; settings: free drug
Experimental: as §1

[5] = system: IGR-37 Melanoma; assay: In vitro cytotoxicity, free drugs on IGR-37; settings: free drug
Experimental: as §1

[6] = system: A375 Melanoma; assay: In vitro cytotoxicity, free drugs on A375; settings: free drug
Experimental: as §1

[7] = system: SK-MEL-28 Melanoma; assay: In vitro cytotoxicity, free drugs on SK-MEL-28; settings: free drug
Experimental: as §1

[8] = system: MDR+ HL60/RV acute myeloid leukemia cell line; assay: In vitro cytotoxicity (CellTiter-Glo cell proliferation assay), free drugs on HL60/RV; settings: free drug, 96 h incubation; read-out: In vitro IC50 HL60/RV (MDR+)
Experimental: as §1

[9] = system: 786-O Renal Cell Carcinoma; assay: In vitro cytotoxicity, 4-load auristatin ADCs on 786-O; settings: 4-load ADC
Experimental: as §1

[10] = system: A498 Renal Cell Carcinoma; assay: In vitro cytotoxicity, 4-load auristatin ADCs on A498; settings: 4-load ADC
Experimental: as §1

[11] = system: L428 Hodgkin Lymphoma; assay: In vitro cytotoxicity, 4-load auristatin ADCs on L428; settings: 4-load ADC
Experimental: as §1

Molecule	IC50 [2] [nM]	In vitro IC50 786-O Renal Cell Carcinoma [9] [ng/mL]	In vitro IC50 A498 Renal Cell Carcinoma [10] [ng/mL]	In vitro IC50 L428 Hodgkin Lymphoma [11] [ng/mL]	other results
CC[C@H](C)[C@@H]([C@@H](CC(=O)N1CCC[C@H]1[C@H](OC)[C@@H](C)C(=O)N[C@H](C)[C@@H](O)c1ccccc1)OC)N(C)C(=O)[C@@H](NC(=O)[C@@H](NC)C(C)C)C(C)C [Compound 3, Monomethyl auristatin E, reference compound] (H-[NMeV]V[Dil][Dolaproine]-X1)	0.1	–	–	–	IC50 [1]: 1 nM; IC50 [3]: 0.1 nM; IC50 [4]: 0.1 nM; IC50 [5]: 0.2 nM; IC50 [6]: 0.1 nM; IC50 [7]: 0.1 nM; IC50 [8]: 180 nM
CC[C@H](C)[C@@H]([C@@H](CC(=O)N1CCC[C@H]1[C@H](OC)[C@@H](C)C(=O)N[C@@H](Cc1ccccc1)C(=O)O)OC)N(C)C(=O)[C@@H](NC(=O)[C@H](C(C)C)N(C)CCCN(C)C(=O)OC(C)(C)C)C(C)C [Compound 25, (Boc-N-methyl)-propyl-AF] (Boc-[X5]V[Dil][Dolaproine]F-OH)	15.1	–	–	–	IC50 ([3]; Homo sapiens, SK-MEL-5): 6.1 nM; IC50 ([4]; Homo sapiens, A2058): 4 nM; IC50 ([5]; Homo sapiens, IGR-37): 16.1 nM; IC50 ([6]; Homo sapiens, A-375): 5.9 nM; IC50 ([7]; Homo sapiens, SK-MEL-28): 17.2 nM
CC[C@H](C)[C@@H]([C@@H](CC(=O)N1CCC[C@H]1[C@H](OC)[C@@H](C)C(=O)N[C@@H](Cc1ccccc1)C(=O)O)OC)N(C)C(=O)[C@@H](NC(=O)[C@H](C(C)C)N(C)CCCCCN(C)C(=O)OC(C)(C)C)C(C)C [Compound 26, (Boc-N-methyl)-pentyl-AF] (Boc-[X2]V[Dil][Dolaproine]F-OH)	12.5	–	–	–	IC50 ([3]; Homo sapiens, SK-MEL-5): 0.9 nM; IC50 ([4]; Homo sapiens, A2058): 0.9 nM; IC50 ([5]; Homo sapiens, IGR-37): 6.5 nM; IC50 ([6]; Homo sapiens, A-375): 2.1 nM; IC50 ([7]; Homo sapiens, SK-MEL-28): 9.6 nM
B1	–	23	39	2	–
B2	–	7	23	2	–
B3	–	12	36	2	–
B4	–	4	9	1	–
B5	–	>1000	>1000	>1000	–
B6	–	5	8	7	–

From patent publication US11857565B2, “Hydrophobic Auristatin F compounds and conjugates thereof” (priority 2018, dated 2024)
